Assay results published in patent US9802996B2, “Glycosylated polypeptide and drug composition containing said polypeptide” (Glytech, Inc., priority 2011, dated 2017).

Columns and labels:
[1] = test system: rat gastrointestinal obstruction model; experiment: Drug effect test in gastrointestinal obstruction model: intestinal fluid weight; format: in vivo, rats; settings: for intestinal fluid weight compared to the vehicle: rats, subcutaneous 40 nmol/kg, 1 hour after administration; for Intestinal fluid weight: jejunum wet weight-dry weight, 40 μM solution 1 mL/kg subcutaneous 18 h after surgery, one hour after administration
Source text: Anesthesia was introduced with inhalation of 2% isoflurane and laughing gas:oxygen=7:3, and this was maintained throughout the surgery. A median incision was made in the abdomen, and the jejunum at about 10 cm from the musculus suspensorius duodeni was ligated with a surgical suture. Then, the incision site was promptly sutured, and the rats were fasted until compound administration. In the sham treatment group, ligation of the jejunum was not performed, but the treatment of suturing the incision site after a median incision was made in the abdomen was performed.
(§1) Eighteen hours after the gastrointestinal obstruction surgery, this was subcutaneously administered into the dorsal cervix at a dosage of 1 mL/kg with a glass syringe and a 25 G injection needle (all from Terumo Corporation). As the vehicle group, saline without glycosylated polypeptide was similarly administered.
One hour after compound administration, a median incision was made in the abdomen under inhalation anesthesia, and 1.5 mL of blood was collected from the abdominal vena cava. Then, the ligated jejunum on the musculus suspensorius duodeni side was resected. The fluid and blood on the jejunum surface were removed with a paper towel, nerves, blood vessels, and fat attached to the jejunum was removed, this was cut into 6 cm lengths, and wet weight was measured. This was then dried at 36 degrees for 24 hours, and dry weight was measured. The intestinal fluid weight (mg) was calculated by wet weight-dry weight.

[2] = test system: rat gastrointestinal obstruction model; experiment: Gastrointestinal obstruction model: blood parameters (amylase, LDH, CPK); format: in vivo, rats; settings: for LDH activity compared to the vehicle / amylase activity compared to the vehicle: rats, blood 1 hour after administration; for Amylase / CPK / LDH: rat gastrointestinal obstruction model, blood collected 1 hour after subcutaneous administration of 40 μM solution at 1 mL/kg, 18 hours after surgery
Procedure: This experimental line was carried out as a test line to evaluate the promotion of intestinal fluid absorption or the secretory suppressing action, using the change in the intestinal fluid weight in the jejunum after bowel obstruction as an indicator. Moreover, blood parameters of deviation enzymes amylase (pancreas), lactate dehydrogenase (LDH, liver), and creatine phosphokinase (CPK, skeletal muscle, cardiac muscle etc.) were measured as indicators of tissue disorders.
The present test was consigned to Mitsubishi Chemical Medience Corporation and carried out. […] Anesthesia was introduced with inhalation of 2% isoflurane and laughing gas:oxygen=7:3, and this was maintained throughout the surgery. A median incision was made in the abdomen, and the jejunum at about 10 cm from the musculus suspensorius duodeni was ligated with a surgical suture. Then, the incision site was promptly sutured, and the rats were fasted until compound administration. In the sham treatment group, ligation of the jejunum was not performed, but the treatment of suturing the incision site after a median incision was made in the abdomen was performed.
as §1
One hour after compound administration, a median incision was made in the abdomen under inhalation anesthesia, and 1.5 mL of blood was collected from the abdominal vena cava.
The measuring methods employed were BG5B, UV-rate, and JSCC methods, respectively.

[3] = test system: growth hormone (GH) production; experiment: GH production suppression test with rats; format: in vivo; settings: for GH production suppression activity: administration of 10 or 100 nmol/kg;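 as to all read-outs here: plasma GH measured by EIA in blood drawn 5 min after intravenous GRF stimulus, given 1 h after compound dosing, compared against saline-treated vehicle rats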
Procedure: This experimental line was carried out as a test line that can evaluate the pharmacological action of the glycosylated form on SSTR and its residence in blood after administration, with blood GH production amount as an indicator.
Moreover, GRF (GH releasing hormone, Growth hormone releasing factor) was used as the GH release enhancer. […] As heparin employed as the anticoagulant when collecting blood, Japanese Pharmacopeia heparin sodium injectable solution (Lot. B084, from Mochida Pharmaceutical Co., Ltd.) was used directly as stock solution.
As the control group, saline without glycosylated polypeptide was similarly administered (vehicle group). […] One hour after administration of the glycosylated form, i.e. after 50 minutes or more had passed under anesthesia, GRF was administered as the GH release enhancer to the tail vain at a dosage of 1 mL/kg with a glass syringe and an injection needle. Five minutes after administration of GRF, blood was collected from the rat cervical vein with a glass syringe containing heparin and an injection needle. 0.4 mL of the collected blood was left on ice for 20 minutes or more, then centrifuged (1,870×g, 4° C., 10 minutes), and 100 μL of the supernatant was taken as the plasma sample. As blank plasma, plasma obtained by similarly treating the blood collected from untreated rat cervical vein was employed. Plasma samples were frozen in storage until employed for measurement.
Measurement of GH concentration in the plasma sample obtained in the above 89-2 was performed with rat Growth Hormone EIA kit from SPI-Bio (SPI-Bio, A05104). The plasma sample was diluted with the assay buffer supplied in the EIA kit to 20, 100, and 500-folds as measurement samples. […] By multiplying the results obtained and the dilution ratio, the GH concentration was calculated.

SSTR1-SSTR5 = experiment: Competitive binding assay, statements over all receptors; set-up: species or system Human; settings: Example 69-1, range over SSTR1-SSTR5
[4] = Pharmacokinetics test with rats (intravenous and subcutaneous administration)
Procedure: 0.2 mL of the collected blood was promptly mixed with 0.2 mL of the aprotinin-containing EDTA-PBS solution prepared in the above 70-1, and left on ice for 30 minutes or more. […] As blank plasma, plasma obtained by similarly treating the blood collected from untreated rat cervical vein was employed. Plasma samples were frozen in storage until employed for measurement.
The standard solution for creating a standard curve was prepared as follows. First, the blank plasma obtained in the above 70-2 was diluted with the assay buffer supplied in the EIA kit similarly to the plasma sample, and this was used as the assay buffer for standard solution preparation (for example, when diluting the plasma sample to 100-fold, 1/100 amount of blank plasma was added to the assay buffer supplied in the EIA kit, and this was used as the assay buffer for standard solution preparation).
Moreover, the predicted initial concentration (C0) was determined by the extrapolation method for intravenous administration, t1/2 and MRT were calculated, and the maximum plasma concentration (Cmax) was determined from the actual value for subcutaneous administration.
Moreover, the parameters obtained were employed to calculate bioavailability from the following mathematical formula. BA (%)=(AUC(sc)/Dose(sc))/(AUC(iv)/Dose(iv))
AUC(sc): AUC for subcutaneous administration (min·nM)
Dose(sc): Administration dose for subcutaneous administration (nmol/kg)
AUC(iv): AUC for intravenous administration (min·nM)
Dose(iv): Administration dose for intravenous administration (nmol/kg)

[5] = Table 8, plasma GH, dose 1 nmol/kg
[6] = Table 8, plasma GH, dose 3 nmol/kg
[7] = Table 8, plasma GH, dose 30 nmol/kg
[8] = intravenous administration, Table 5A
[9] = subcutaneous administration, Table 5A
[10] = Table 8, plasma GH, dose 10 nmol/kg
[11] = Table 7, plasma GH, dose 1 nmol/kg subcutaneous, GRF 1 hour after administration, blood 5 min after GRF
[12] = Table 7, plasma GH, dose 10 nmol/kg subcutaneous, GRF 1 hour after administration, blood 5 min after GRF
[13] = Table 8, plasma GH, dose 100 nmol/kg

With `C[C@@H](O)[C@@H]1NC(=O)[C@H](CCCCN)NC(=O)[C@@H](Cc2c[nH]c3ccccc23)NC(=O)[C@H](Cc2ccccc2)NC(=O)[C@@H](NC(=O)[C@H](N)Cc2ccccc2)CSSC[C@@H](C(=O)N[C@H](CO)[C@@H](C)O)NC1=O` [Octreotide, reference compound] the “intestinal fluid weight compared to the vehicle” value [1] was “confirmed to have this effect”, the “LDH activity compared to the vehicle” value [2] was “low value compared to the vehicle” and the “amylase activity compared to the vehicle” value [2] was “equivalent to the vehicle”.

In the case of A9C(disialo)-SRIF28 [Example 3], the “GH production suppression effect” value ([3]; rats, subcutaneous, 10 nmol/kg) is reported as 95-99%.

In the case of C(disialo)-R-K-SRIF14 [Example 18], the “Intestinal fluid weight” value [1] is reported as 584 ± 95 mg, the “intestinal fluid weight compared to the vehicle” value [1] is reported as “increase in the intestinal fluid weight compared to the vehicle” and the “affinity towards SSTR1-SSTR5, folds higher than S1C(disialo)-SRIF28” value (SSTR1-SSTR5) is reported as 0.7-2.4 folds. For the same compound, the “GH” value [3, 5] was 912 ng/mL, the “GH” value [3, 6] was 291 ng/mL and the “GH” value [3, 7] was 12 ng/mL. The “GH production suppression effect” value ([3]; rats, subcutaneous, 10 nmol/kg) was 95-99%, the Amylase [2] was 985 ± 238 IU/L and the CPK [2] was 415 ± 137 IU/L. The LDH [2] was 228 ± 155 IU/L, the “LDH activity compared to the vehicle” value [2] was “low value compared to the vehicle” and the “amylase activity compared to the vehicle” value [2] was “low value compared to the vehicle”.

For E12C(disialo)-SRIF28 [Example 4], the “GH production suppression effect” value ([3]; rats, subcutaneous, 10 nmol/kg) was 95-99%.

With K14C(disialo)-SRIF28 [Example 6] the “GH production suppression activity” value ([3]; rats) was “showed GH production suppression activity”.

In the case of N5C(disialo)-SRIF28 [Example 2], the “GH production suppression effect” value ([3]; rats, subcutaneous, 10 nmol/kg) is reported as 95-99%.

For R13C(disialo)-SRIF28 [Example 5], the “GH production suppression activity” value ([3]; rats) was “showed GH production suppression activity”.

In the case of S1-2C(asialo)-SRIF28 [Example 28], the “intestinal fluid weight compared to the vehicle” value [1] is reported as “increase in the intestinal fluid weight compared to the vehicle”, the “affinity towards SSTR1-SSTR5, folds higher than S1C(disialo)-SRIF28” value (SSTR1-SSTR5) is reported as 1.7-2.9 folds and the “GH production suppression effect” value ([3]; rats, subcutaneous, 10 nmol/kg) is reported as 70-99%.

In the case of S1-5C(disialo)-SRIF28 [Example 34], the AUC [4, 8] is reported as 6016 ± 873 nM·min, the C0 [4, 8] is reported as 752 ± 81.4 nM and the MRT [4, 8] is reported as 49.0 ± 6.06 min. The t1/2 [4, 8] was 99.5 ± 14.0 min, the “AUC for subcutaneous administration, folds of S1C(disialo)-SRIF28” value ([4]; subcutaneous) was 1.8-3.1 folds and the AUC [4, 9] was 5524 ± 633 nM·min. For the same compound, the Cmax [4, 9] was 13.5 ± 2.85 nM, the MRT [4, 9] was 389 ± 50.0 min and the t1/2 [4, 9] was 271 ± 38.7 min. For the same compound, the “bioavailability (BA)” value ([4]; subcutaneous vs intravenous AUC) was 92%, the BA ([4]; subcutaneous vs intravenous administration, Table 5A) was 92% and the “GH” value [3, 10] was 842 ng/mL. The “GH production suppression activity” value ([3]; rats) was “showed GH production suppression activity”.

In the case of S1C(asialo)-SRIF28 [Example 27], the “GH production suppression effect” value ([3]; rats, subcutaneous, 10 nmol/kg) is reported as 70-99%.

For S1C(disialo(Bn))-SRIF28 [Example 61], the “GH production suppression effect” value ([3]; rats, subcutaneous, 10 nmol/kg) was 95-99%.

For S1C(disialo(amide))-SRIF28 [Example 60], the “GH production suppression effect” value ([3]; rats, subcutaneous, 10 nmol/kg) was 70-99%.

In the case of “S1C(disialo(aminoethylamide))-SRIF28 [Example 59]”, the “GH production suppression effect” value ([3]; rats, subcutaneous, 10 nmol/kg) is reported as 70-99%.

In the case of “S1C(disialo)-D-Trp22-SRIF28 [Example 15]”, the “GH production suppression effect” value ([3]; rats, subcutaneous, 10 nmol/kg) is reported as 95-99%.

With S1C(disialo)-SRIF28 [Example 1] the “Intestinal fluid weight” value [1] was 630 ± 83 mg, the “intestinal fluid weight compared to the vehicle” value [1] was “increase in the intestinal fluid weight compared to the vehicle” and the “GH” value [3, 11] was 490 ng/mL. The “GH” value [3, 12] was 17.1 ng/mL, the “GH” value [3, 5] was 787 ng/mL and the “GH” value [3, 6] was 182 ng/mL. The “GH” value [3, 10] was 15 ng/mL, the “GH” value [3, 7] was 8 ng/mL and the “GH” value [3, 13] was 7 ng/mL. The “dose from which GH production was suppressed” value ([3]; rats, subcutaneous) was at least 1 nmol/kg, the “GH production suppression effect” value ([3]; rats, subcutaneous, 3-10 nmol/kg) was 82-99% and the Amylase [2] was 1164 ± 224 IU/L. The CPK [2] was 455 ± 202 IU/L, the LDH [2] was 338 ± 97 IU/L and the “amylase activity compared to the vehicle” value [2] was “low value compared to the vehicle”.

In the case of “S1C(disialo)•N5C(disialo)-SRIF28 [Example 21]”, the “GH” value [3, 11] is reported as 776 ng/mL, the “GH” value [3, 12] is reported as 181 ng/mL and the “GH” value [3, 5] is reported as 776 ng/mL. For the same compound, the “GH” value [3, 10] was 181 ng/mL and the “GH production suppression activity” value ([3]; rats) was “showed GH production suppression activity”.

In the case of “S1C(disialo)•N5C(disialo)•A9C(disialo)-SRIF28 [Example 25]”, the “GH” value [3, 12] is reported as 833 ng/mL, the “GH” value ([3]; Table 7, plasma GH, dose 100 nmol/kg subcutaneous, GRF 1 hour after administration, blood 5 min after GRF) is reported as 151 ng/mL and the “GH” value [3, 13] is reported as 151 ng/mL. The “GH production suppression activity” value ([3]; rats) was “showed GH production suppression activity”.

In the case of S1C(monosialo)-SRIF28 [Example 26], the “GH production suppression effect” value ([3]; rats, subcutaneous, 10 nmol/kg) is reported as 70-99%.
